Assay results from US20100112012A1, “MODULATION OF IMMUNE RESPONSES” (CLEVELAND CLINIC FOUNDATION, priority 2005, published 2010).
“Also recorded” adds a separate entry of the source.

Legend:
[1] = system: antigen-presenting dendritic cells; assay: Flow cytometry of CD11c+/FITC+ dendritic cells in skin draining lymph nodes; format: in vivo, BALB/c mice; settings: day +2
Procedure: LNC were obtained from hapten-sensitized mice on day +2 post-sensitization. To prevent non-specific antibody binding cells were incubated with rat serum (Rockland, Gilbertsville, Pa.) diluted 1:1000 in staining buffer (Dulbecco's PBS with 2% FCS/0.02% NaN3) for 20 min on ice. Then cells were washed and stained with PE-labeled anti-CD11c mAb to detect DC. Stained cells were washed five times, resuspended in staining buffer and analyzed by two-color flow cytometry using a FACScan (Becton Dickinson, San Jose, Calif.).
To detect Langerhans cells in the lymph nodes LNC were obtained 48 h after sensitization with 1% FITC and were stained with PE-labeled anti-CD11c mAb and then analyzed by two-color flow cytometry.

[2] = system: p53; assay: Phosphorylation status of p53 (Western analysis); format: cell-based, human; settings: RCC45 cells, 9AA 5 μM, 16 h
Procedure: Cells were lysed in RIPA buffer (25 mM Tris HCl, pH 7.2, 125 mM NaCl, 1% NP40, 1% sodium deoxycholate, 1 mM EDTA) containing 1 mM PMSF (Sigma), 10 ug/ml of aprotinin (Sigma) and 10 ug/ml of leupeptin (Sigma). Protein concentrations were determined with the BioRad Dc protein assay kit. Equal protein amounts were run on gradient 4-20% precast gels (Novex) and blotted onto PVDF membranes (Amersham). The following antibodies were used: anti-p53—monoclonal mouse DO1 (Santa-Cruz), anti-p21—monoclonal mouse F-5 (Santa-Cruz), anti-mdm2—monoclonal mouse SMP14 (Santa-Cruz), anti-p65—(C20, Santa Cruz), anti-phospho-p65—(ser536, Cell Signaling), anti-IκBa—(C21, Santa Cruz), anti-p50—(NLS, Santa Cruz), anti-IKK1 (Cell Signaling), anti-γH2X (Cell Signaling), anti-actin (Santa Cruz). p53 phosphorylation status was analyzed using the phospho-p53 sampler kit from Cell Signaling according to the manufacturer's recommendations. HRP-conjugated secondary antibodies were purchased from Santa Cruz. Quantitation of the data was performed using Quantity One software from BioRad.

[3] = system: p53; assay: Screening for p53-activating compounds, p53-responsive reporter in RCC45ConALacZ cells; format: cell-based, human
Procedure: Transient transfections. 2×10^5 cells were plated into 6-well plates and, after overnight incubation, transfected with Lipofectamin Plus reagent (Gibco BRL) with 0.5 μg of reporter plasmids (p21-ConALuc or pNF-κBLuc) in combination with different concentrations of plasmids expressing p53, Arf, Ss-IκB, or siHDM2. Corresponding empty vectors were added in all transfections up to 2 μg of total DNA. Normalization of transfection efficiency was done by adding 0.2 μg of pCMV-LacZ plasmid. Luciferase activity and β-galactosidase activity were measured in lysates prepared 48 hours after transfection with Cell Lysis Buffer (Promega) by the luciferase assay system (Promega) or β-galactosidase enzyme system (Promega). Luminometric and colorimetric reactions were read on the Wallack 1420 plate reader (Perkin Elmer). Stable transduction of reporters. 2×10^4 cells with integrated reporter were plated in 96-well plates. After overnight incubation, chemicals or media from lentivirus-producing cells were added. At different times, cell lysates were prepared using Reporter Lysis Buffer (Promega). Luciferase or β-galactosidase activity and protein concentration were measured in aliquots of cell lysates using standard kits (Promega, Luciferase and β-galactosidase assay systems, Biorad Protein Assay Kit).
The DiverSet library of 34,000 chemical compounds and focused libraries of structural analogues of selected hits were provided by Chembridge, Calif. Cell lines with p53- or NF-κB-responsive luciferase or β-galactosidase reporters were described previously (5, 7). For screening chemicals, 2×10^4 RCC45ConALacZ cells (RCC45-based p53 reporter cells) were plated per well of 96-well plates in 200 μL of phenol-red-free RPMI medium with standard additions. After overnight incubation, the compounds were added to final concentrations of 5-15 μM (0.2 μL of compound in DMSO per well). […] After 24 h, lysis buffer with ortho-nitrophenyl-β-D-galactopyranoside (ONPG) was added and β-galactosidase activity was estimated colorimetrically by a multiwell plate reader.

[4] = system: contact hypersensitivity (CHS) response; assay: Hapten sensitization and elicitation of contact hypersensitivity; format: in vivo, BALB/c mice; settings: 24 hours after challenge
Procedure: For sensitization to DNFB, mice were painted on days 0 and +1 with 25 ml of 0.25% 2,4-dinitrofluorobenzene (DNFB) (Sigma Chemical, Co.) on the shaved abdomen and 5 ml on each footpad. On day +5 sensitized and, as a negative control, unsensitized mice were challenged with 10 ml of 0.2% DNFB on both sides of each ear. Ear thickness was measured in a blinded manner at 24 h intervals after challenge using an engineer's micrometer (Mitutoyo, Elk Grove Village, Ill.) and expressed in units of 10^−4 inches. The magnitude of ear swelling responses is presented in FIG. 12 as the mean increase of each group of 4 sensitized or non-sensitized mice (i.e. […]) ±SEM over the thickness measured just prior to hapten challenge on day +5 post-sensitization. […] Control mice received injections with an equal volume of PBS.

[5] = system: androgen receptor, N-Myc, CLOCK/Bmal and Smad; assay: Reporter activity of other transcriptional activators; format: cell-based; settings: data not shown

Structure (SMILES): CCN(CC)CCCC(C)Nc1c2ccc(Cl)cc2nc2ccc(OC)cc12 (stereo not shown) [QC, quinacrine]
- numbers of antigen-presenting dendritic cells in the skin draining lymph nodes ([1]; quinacrine on days 0 and +1 (during 1% FITC sensitization)): increased numbers of antigen-presenting dendritic cells
- numbers of antigen-presenting dendritic cells in the skin draining lymph nodes ([1]; quinacrine on days −2 and −1 (prior to 1% FITC sensitization)): decreased numbers of antigen-presenting dendritic cells
- phosphorylation of p53 [2]: did not induce the phosphorylation of p53
- activation of the p53-dependent reporter (p53 transactivation) in RCC [3]: effective inducer of p53 transactivation in RCC
- CHS/ear swelling response ([4]; quinacrine 80 mg/kg i.p. on days −2 and −1 (just prior to DNFB sensitization)): inhibits the priming of antigen-specific T cells (FIG. 13) and the magnitude and duration of the allergic response elicited; also recorded: decreased the CHS/ear swelling response to near the level observed following challenge of non-immune, naïve mice
- CHS/ear swelling response ([4]; quinacrine on days 0 and +1 (during DNFB sensitization)): increased the magnitude and persistence of the antigen-specific T cell response; also recorded: increased the CHS response to the challenge
- activity of other transcriptional activators (androgen receptor, N-Myc, CLOCK/Bmal and Smad) [5]: did not change the activity
